Assay results as given in patent US20060233883A1, “Intravenous nanoparticles for targeting drug delivery and sustained drug release” (priority 2003, published 2006).
Each block holds one compound with its values, some of them ahead of it.

What was measured:
[1] = Encapsulation of steroids into PLGA nanoparticles (steroid content by HPLC); assay type: physicochemical; details: for Steroid/nanoparticle (wt %): PLGA nanoparticles
Protocol: Each mixture was centrifuged at 12,000 rpm for 5 min and the supernatant was discarded to obtain precipitates in the form of zinc-steroids or iron-steroids. […] To each of the resultant solutions, an aqueous solution of zinc acetate was added and the mixture was allowed to stand for 2 hours at room temperature. […] The mixture was then centrifuged at 20,000 G for 20 min. Following the removal of the supernatant, the residue was resuspended in water and the suspension was again centrifuged to wash the nanoparticles. […] Similarly, the amount of water-insoluble steroid was determined for the nanoparticles prepared by different method without metal ions.

[2] = Formation of water-insoluble precipitates of drugs with metal ions (turbidity observed); assay type: physicochemical; details: for Formation of precipitates with metal ions: 3N HCl, 20 mM drug in 0.2M Tris-HCl pH 7.8
[3] = as above; assay type: physicochemical; details: 20 mM drug in 0.2M Tris-HCl pH 7.8 + equal volume 100 mM metal ion
Protocol: Compounds shown in Table 1 below were used to as the low-molecular weight, water-soluble and non-peptide drug having phosphate groups. […] The solution was then added to equal volume of 100 mM aqueous solutions of different metal ions. The turbidity of each of the resulting mixtures was observed.

[4] = test system: inflammatory sites; assay: Accumulation of nanoparticles in inflammatory sites (carrageenin leg edema, fluorescence microscopy); assay type: in vivo, male Lewis rats; details: single tail vein injection 4 hours after carrageenin; 2 hours after administration
Protocol: Inflammation was induced by injecting 100 μl physiological saline containing 1% carrageenin in the left hind paw of male Lewis rats. After 4 hours, single dosages of rhodamine-encapsulating nanoparticles of two different sizes (200 nm and 500 nm) were injected into a tail vein. 2 hours after administration, the resultant leg edema was cut and cryostat sections were prepared.
As controls, one group was administered with physiological saline and another group with rhodamine alone.

- Steroid/nanoparticle (wt %) [1]: 0.15 wt %
Compound: CC(=O)OCC(=O)[C@@]1(O)[C@@H](C)C[C@H]2[C@@H]3CCC4=CC(=O)C=C[C@]4(C)[C@@]3(F)[C@@H](O)C[C@@]21C [betamethasone acetate]

- Formation of precipitates with metal ions [2]: −
- molar ratio with respect to zinc ion at which precipitate formation was most significant ([2]; zinc ion, molar ratio varied): approximately 1
- Formation of precipitates with metal ions ([3]; CuCl2): +++
- Formation of precipitates with metal ions ([3]; FeCl2): +++
- Formation of precipitates with metal ions ([3]; FeCl3): +++
- Formation of precipitates with metal ions ([3]; MgCl2): −
- Formation of precipitates with metal ions ([3]; NiCl2): −
- Formation of precipitates with metal ions ([3]; Zn(CH3COO)2): +++
- Formation of precipitates with metal ions ([3]; ZnCl2): +++
Compound: Cc1cc2nc3c(=O)[nH]c(=O)nc-3n(C[C@H](O)[C@H](O)[C@H](O)COP(=O)(O)O)c2cc1C [riboflavin phosphate]

- Steroid/nanoparticle (wt %) [1]: 0 wt %
Compound: C[C@@H]1C[C@H]2[C@@H]3CCC4=CC(=O)C=C[C@]4(C)[C@@]3(F)[C@@H](O)C[C@]2(C)[C@@]1(O)C(=O)COP(=O)(O)O [DP-Na, dexamethasone phosphate]

- Steroid/nanoparticle (wt %) [1]: 1.05 wt %
Compound: hydrocortisone phosphate [HP-Zn]

- Steroid/nanoparticle (wt %) [1]: 2.03 wt %
Compound: C[C@H]1C[C@H]2[C@@H]3CCC4=CC(=O)C=C[C@]4(C)[C@@]3(F)[C@@H](O)C[C@]2(C)[C@@]1(O)C(=O)COP(=O)(O)O [BP-Zn, betamethasone phosphate]

- Steroid/nanoparticle (wt %) [1]: 0.47 wt %
Compound: CCC(=O)OCC(=O)[C@@]1(OC(=O)CC)[C@@H](C)C[C@H]2[C@@H]3CCC4=CC(=O)C=C[C@]4(C)[C@@]3(F)[C@@H](O)C[C@@]21C [BDP, betamethasone dipropionate]

- Steroid/nanoparticle (wt %) [1]: 0 wt %
Compound: C[C@H]1C[C@H]2[C@@H]3CCC4=CC(=O)C=C[C@]4(C)[C@@]3(F)[C@@H](O)C[C@]2(C)[C@@]1(O)C(=O)COP(=O)(O)O [BP-Na, betamethasone phosphate]

Compound: Naphthyl-phosphate
- Formation of precipitates with metal ions [2]: −
- Formation of precipitates with metal ions ([3]; CuCl2): −
- Formation of precipitates with metal ions ([3]; FeCl2): +++
- Formation of precipitates with metal ions ([3]; FeCl3): +++
- Formation of precipitates with metal ions ([3]; MgCl2): −
- Formation of precipitates with metal ions ([3]; NiCl2): −
- Formation of precipitates with metal ions ([3]; Zn(CH3COO)2): +++
- Formation of precipitates with metal ions ([3]; ZnCl2): +++

- Formation of precipitates with metal ions [2]: −
- dispersion state of the nanoparticles ([1]; 500 μl or less of acetone): formed aggregates
- dispersion state of the nanoparticles ([1]; 700 μl acetone): remained stably dispersed
- Steroid/nanoparticle (wt %) ([1]; zinc precipitate of 5 mg, acetone 700 μl): 7.34 wt %
- Steroid/nanoparticle (wt %) ([1]; zinc precipitate of 5 mg, acetone 900 μl): 4.28 wt %
- Steroid/nanoparticle (wt %) ([1]; zinc precipitate of 5 mg, acetone 1100 μl): 3.46 wt %
- Steroid/nanoparticle (wt %) ([1]; zinc precipitate of 5 mg, acetone 1300 μl): 2.71 wt %
- Steroid/nanoparticle (wt %) ([1]; zinc precipitate of 5 mg, acetone 1500 μl): 1.93 wt %
- Formation of precipitates with metal ions ([3]; CuCl2): +++
- Formation of precipitates with metal ions ([3]; FeCl2): +++
- Formation of precipitates with metal ions ([3]; FeCl3): +++
- Formation of precipitates with metal ions ([3]; MgCl2): −
- Formation of precipitates with metal ions ([3]; NiCl2): −
- Formation of precipitates with metal ions ([3]; Zn(CH3COO)2): +++
- Formation of precipitates with metal ions ([3]; ZnCl2): +++
Compound: C[C@H]1C[C@H]2[C@@H]3CCC4=CC(=O)C=C[C@]4(C)[C@@]3(F)[C@@H](O)C[C@]2(C)[C@@]1(O)C(=O)COP(=O)(O)O [betamethasone phosphate]

- accumulation of the nanoparticles in the inflammatory sites (fluorescence in tissue sections) [4]: No significant accumulation
Compound: rhodamine

- Steroid/nanoparticle (wt %) [1]: 0 wt %
Compound: hydrocortisone phosphate [HP-Na]

- Steroid/nanoparticle (wt %) [1]: 1.15 wt %
Compound: C[C@@H]1C[C@H]2[C@@H]3CCC4=CC(=O)C=C[C@]4(C)[C@@]3(F)[C@@H](O)C[C@]2(C)[C@@]1(O)C(=O)COP(=O)(O)O [DP-Zn, dexamethasone phosphate]

- Formation of precipitates with metal ions [2]: −
- Formation of precipitates with metal ions ([3]; CuCl2): +++
- Formation of precipitates with metal ions ([3]; FeCl2): +++
- Formation of precipitates with metal ions ([3]; FeCl3): +++
- Formation of precipitates with metal ions ([3]; MgCl2): −
- Formation of precipitates with metal ions ([3]; NiCl2): +
- Formation of precipitates with metal ions ([3]; Zn(CH3COO)2): +++
- Formation of precipitates with metal ions ([3]; ZnCl2): +++
Compound: C[C@@H]1C[C@H]2[C@@H]3CCC4=CC(=O)C=C[C@]4(C)[C@@]3(F)[C@@H](O)C[C@]2(C)[C@@]1(O)C(=O)COP(=O)(O)O [Dexamethasone phosphate, dexamethasone phosphate]

- Steroid/nanoparticle (wt %) [1]: 1.15 wt %
Compound: C[C@H]1C[C@H]2[C@@H]3CCC4=CC(=O)C=C[C@]4(C)[C@@]3(F)[C@@H](O)C[C@]2(C)[C@@]1(O)C(=O)COP(=O)(O)O [BP-Fe, betamethasone phosphate]
